From article PMC4601051, “Discovery of Indoline-2-carboxamide Derivatives as a New Class of Brain-Penetrant Inhibitors of Trypanosoma brucei” (Journal of Medicinal Chemistry, 2015)
Values joined by “and” are separate entries in the source; they are usually repeats but may differ in a detail not shown here. Identical values can stand only once. Like-named read-outs stand apart in the source and are kept apart here.

What was measured:
in vitro = settings: human, MRC-5 fibroblasts
Procedure: Proliferation assays using bloodstream form T. brucei brucei and human MRC-5 fibroblasts were conducted using a modification of the cell viability assay as previously reported.[27],[39]
MRC-5 cells (2000 cells per well) were seeded in 200 μL of DMEM, 10% FCS, and allowed to adhere overnight. One microliter of test compound was added to each well on the day of assay initiation.
The final DMSO level was 0.5% in all cases.

[1] = Plasma protein binding by equilibrium dialysis, mouse; format: in vitro ADME; settings: read-out: plasma protein binding, Fu (fraction unbound)
Procedure: (§1) The software package StarDrop by Optibrium was used to calculate physicochemical parameters including log P, molecular weight, and polar surface area (PSA). The aqueous kinetic solubility of the compounds was measured using laser nephelometry as previously described.[40] The plasma protein binding of the compounds was determined by the equilibrium dialysis method.[12]

[2] = system: bloodstream form T. brucei brucei; test: T. b. brucei whole cell parasite (trypanosome growth) assay; format: cell-based, Trypanosoma brucei brucei; settings: for EC50: Trypanosoma brucei, mean of two or more determinations, 69 h + 4 h resazurin, read-out: T. b. brucei EC50
Procedure: This was conducted as previously described.[27] Cell culture plates were stamped with 1 μL of an appropriate stock concentration of test compound, followed by addition of 200 μL of trypanosome culture (HMI9-T, 10% FCS) to each well at a density of 2000 cells per well (except column 12 receiving media only). […] Potency was carried out using 10-point dose–response curves.

[3] = In vivo mouse pharmacokinetics; settings: for Cmax / Tmax / half-life / AUC(0-t) at 8 h / AUC(0-t): female, mouse, in vivo, 10 mg/kg, NMRI mice; for AUC(0-t) at 8 h: read-out: AUC0–8; for AUC(0-t): read-out: AUC0–8 (converted)
Procedure: Each compound was dosed as a bolus solution intraperitoneally at 10 mg free base/kg (dose volume, 10 mL/kg; dose vehicles used, 10% DMSO; 40% PEG400; 50% Milli-Q water or 5% DMSO; 40% PEG400; 55% saline) to female HRN (1 only) or NMRI mice (n = 3) or dosed orally by gavage as a solution at 10 mg free base/kg (dose volume, 10 mL/kg; dose vehicle, 10% DMSO; 40% PEG400; 50% Milli-Q water) to female NMRI mice (n = 3). Female NMRI mice were chosen, as these represent the sex and strain used for the stage 1 and stage 2 HAT efficacy models. Blood samples were taken from each mouse at 5 (IP only), 15, and 30 min, 1, 2, 4, 6, and 8 h post dose, mixed with two volumes of distilled water, and stored frozen until UPLC/MS/MS analysis. Pharmacokinetic parameters were derived from noncompartmental analysis of the blood concentration time curve using PK solutions software v 2.0 (Summit Research Services, USA).

[4] = Mouse brain penetration (brain:blood ratio); settings: in vivo, dosed intravenously at 0.5 or 1 mg/kg, levels measured after 5 min, female NMRI mice, read-out: B:B (brain to blood ratio)
Procedure: Each compound was dosed as a bolus solution intravenously at 0.5 or 1 mg free base/kg (dose volume, 5 mL/kg; dose vehicle, 10% DMSO; 40% PEG400; 50% Milli-Q water) to female NMRI mice (n = 6). At 5 and 30 min following intravenous bolus injection of test compound, mice (n = 3/time point) were placed under terminal anesthesia with isofluorane. A blood sample was taken by cardiac puncture and mixed with two volumes of distilled water, the mice decapitated, and the brain removed. Diluted blood and brains were stored frozen until preparation and analysis by UPLC/MS/MS. For each mouse at each time point, the concentration in brain (ng/g) was divided by the concentration in blood (ng/mL) to give a brain:blood ratio. The mean value obtained was quoted.

[5] = Microsomal intrinsic clearance (Clint), mouse; format: in vitro ADME; settings: mouse liver microsomes, 0.5 μM compound
Procedure: (§2) Each test compound (0.5 μM) was incubated with pooled female CDI mouse liver microsomes, pooled male Sprague–Dawley rat microsomes, or pooled mixed gender human liver microsomes (Tebu-Bio, UK; 0.5 mg/mL 50 mM potassium phosphate buffer, pH 7.4) and the reaction started with addition of excess NADPH (8 mg/mL, 50 mM potassium phosphate buffer, pH 7.4). Immediately, at time zero, then at 3, 6, 9, 15, and 30 min, an aliquot (50 μL) of the incubation mixture was removed and mixed with acetonitrile (100 μL) to stop the reaction. Internal standard was added to all samples, and the samples were centrifuged at 1825g for 10 min to sediment precipitated protein. The plates were then sealed prior to UPLC/MS/MS analysis using a Quattro Premier XE (Waters Corporation, USA).
(§3) XLfit (IDBS, UK) was used to calculate the exponential decay and consequently the rate constant (k) from the ratio of peak area of test compound to internal standard at each time point.

[6] = system: panel of receptors, including dopamine, serotonin, histamine, and muscarinic receptors; test: NIMH Psychoactive Drug Screening Program (PDSP) receptor panel; format: binding; settings: significant inhibition is considered > 50%
Excerpt: However, the observed toxicity prevents further progression of the compounds. To try and identify a possible driver for toxicity, that may then offer an opportunity to design out this unwanted effect, the key compounds were screened against a panel of receptors at the NIMH Psychoactive Drug Screening Program (PDSP).[36],[37] No significant activity against a large panel of receptors, including dopamine, serotonin, histamine, and muscarinic receptors (see Supporting Information) was observed.
S2: Details of receptors screened at the NIMH Psychoactive Drug Screening Program […]
receptors screened. Significant inhibition is considered > 50%. In cases where negative inhibition (-) is seen, this represents a stimulation of binding. The receptors screened were 5- […]
HT7, Alpha1A, Alpha1B, Alpha1D, Alpha2A, Alpha2B, Alpha2C, Beta1, Beta2, Beta3, BZP rat Brain site, D1, D2, D3, D4, D5, DAT, DOR, GABBA, H1, H2, H3, KOR, M1, M2, M3, M4, M5, MOR, NET, PBR, SERT, Sigma1 and Sigma2

[7] = Microsomal intrinsic clearance (Clint), human; format: in vitro ADME; settings: human liver microsomes, 0.5 μM compound
Procedure: as §2, §3

[8] = Aqueous kinetic solubility by laser nephelometry; format: physicochemical; settings: aqueous medium, Table 7
Procedure: as §1

[9] = Brain tissue binding by equilibrium dialysis; format: in vitro ADME; settings: Sprague-Dawley, brain homogenate; rat (male SD rat); read-out: brain tissue binding (rat), Fu
Procedure: In brief, a 96-well equilibrium dialysis apparatus was used to determine the free fraction in the brain for the test compound (HT Dialysis LLC, Gales Ferry, CT). Membranes (12–14 kDa A cutoff) were conditioned in deionized water for 60 min, followed by conditioning in 80:20 deionized water:ethanol for 20 min and then rinsed in artificial cerebrospinal fluid (CSF) before use. Mouse brain was removed from the freezer and allowed to thaw on the day of experiment. […] Diluted brain homogenate was spiked with the test compound (10 ug/g), and 150 μL aliquots (n = 6 replicate determinations) loaded into the 96-well equilibrium dialysis plate. Dialysis vs artificial CSF (150 μL) was carried out for 5 h in a temperature controlled incubator at ca. 37 °C (Stuart scientific Ltd., UK) using an orbital microplate shaker at 125 rpm (Stuart scientific Ltd., UK). […] All samples were analyzed by means of UPLC/MS/MS on a Quattro Premier XE mass spectrometer (Waters Corporation, USA). The unbound fraction was determined as the ratio of the peak area in artificial CSF to that in brain, with correction for dilution factor according to eq 1.[42] […] 1 where D = dilution factor in brain homogenate and Fu,apparent is the measured free fraction of diluted brain homogenate.

[10] = Microsomal intrinsic clearance (Clint), rat; format: in vitro ADME; settings: rat liver microsomes, 0.5 μM compound
Procedure: as §2, §3

Structure (SMILES)	EC50 at 69 h (in vitro)	fraction unbound [1]	EC50 [2]	Cmax ([3]; IP)	Tmax ([3]; IP)	half-life ([3]; IP)	AUC(0-t) at 8 h ([3]; IP)	AUC(0-t) ([3]; IP)	Cmax ([3]; PO)	Tmax ([3]; PO)	half-life ([3]; PO)	AUC(0-t) at 8 h ([3]; PO)	AUC(0-t) ([3]; PO)	Kp at 5 min [4]	mouse microsomal intrinsic clearance [5]	further results
CNC(=O)C1Cc2ccccc2N1C(=O)COc1ccc(F)cc1 (stereo not shown) [Compound 35, 1-(2-(4-fluorophenoxy)acetyl)-N-methylindoline-2-carboxamide]	> 50000 nM	0.42	20 nM	910 ng/mL and 2.8 µM	15 min	66 min	5.6 µM·h	1830 ng·h/mL	180 ng/mL and 550 nM	15 min	42 min	0.8 µM·h	250 ng·h/mL	1.5	1.2 mL min^–1 g^–1 and 1.2/ND mL min^–1 g^–1	inhibition against receptors screened [6]: did not show significant inhibitor
CNC(=O)C1Cc2cc(F)ccc2N1C(=O)COc1ccc(F)cc1 (stereo not shown) [Compound 55, 5-fluoro-1-(2-(4-fluorophenoxy)acetyl)-N-methylindoline-2-carboxamide]	> 50000 nM	0.33	80 nM	2900 ng/mL and 8.4 µM	60 min	72 min	34 µM·h	11800 ng·h/mL	1500 ng/mL and 4.3 µM	30 min	120 min	10 µM·h	3500 ng·h/mL	1.4	1.3 mL min^–1 g^–1	microsomal intrinsic clearance, human [7]: 0.5 mL min^–1 g^–1 and < 0.5 mL min^–1 g^–1; Hill slope ([2]; T. brucei EC50 curve): 4.4; solubility [8]: > 100 µg/mL; fraction unbound at 5 h, 10 ug/g [9]: 0.29; higher AUC compared to 1 ([3]; IP, female NMRI mice): 1.5–6.5 fold; microsomal intrinsic clearance, rat [10]: 2.1 mL min^–1 g^–1
